Measured values reported in ChEMBL document CHEMBL1154238, “Identification of specific small molecule ligands for stem loop 3 ribonucleic acid of the packaging signal Psi of human immunodeficiency virus-1” (J Med Chem, 2009).
Values belong to the compound of their own block, whether it stands above or below them. Active and inactive are the calls of the source. No cut-off for these calls is given here.

Tests used:
Nucleic Acid [1] = assay: Binding affinity to fluorescein-labeled 20mer stem loop 3 HIV1 RNA of packaging element psi by titration method; assay type: nucleic-acid assay, Human immunodeficiency virus 1
Nucleic Acid [2] = assay: Binding affinity to fluorescein-labeled HIV1 duplex RNA of packaging element psi by titration method; assay type: nucleic-acid assay, Human immunodeficiency virus 1
Nucleic Acid [3] = assay: Binding affinity to fluorescein-labeled HIV1 single-stranded RNA of packaging element psi by titration method; assay type: nucleic-acid assay, Human immunodeficiency virus 1
Nucleic Acid [4] = assay: Selectivity ratio of Kd for HIV1 single-stranded RNA to Kd for 20mer stem loop 3 HIV1 RNA; assay type: nucleic-acid assay; conditions: Human immunodeficiency virus 1
Nucleic Acid [5] = assay: Selectivity ratio of Kd for fluorescein-labeled HIV1 duplex RNA of packaging element psi to Kd for fluorescein-labeled 20mer stem loop 3 HIV1 RNA of packaging element psi; assay type: nucleic-acid assay; conditions: Human immunodeficiency virus 1
Nucleic Acid [6] = assay: Binding affinity to fluorescein-labeled stem loop 3 HIV1 duplex RNA of packaging element psi by titration method; assay type: nucleic-acid assay, Human immunodeficiency virus 1
Nucleic Acid [7] = assay: Selectivity ratio of Kd for fluorescein-labeled HIV1 single-stranded RNA of packaging element psi to Kd for fluorescein-labeled 20mer stem loop 3 HIV1 RNA of packaging element psi; assay type: nucleic-acid assay; conditions: Human immunodeficiency virus 1
Nucleic Acid [8] = assay: Binding affinity to unlabeled 20mer stem loop 3 HIV1 RNA of packaging element psi by titration method; assay type: nucleic-acid assay, Human immunodeficiency virus 1
Nucleic Acid [9] = assay: Binding affinity to strong binding site of unlabeled stem loop 2 HIV1 RNA of packaging element psi by isothermal titration calorimetry; assay type: nucleic-acid assay, Human immunodeficiency virus 1
Nucleic Acid [10] = assay: Binding affinity to stem loop 3 HIV1 RNA of packaging element psi assessed as RNA intercalation at 55 to 220 uM by CD spectroscopy; assay type: nucleic-acid assay; conditions: Human immunodeficiency virus 1
Nucleic Acid [11] = assay: Binding affinity to fluorescein-labeled stem loop 2 HIV1 RNA of packaging element psi by titration method; assay type: nucleic-acid assay, Human immunodeficiency virus 1
Nucleic Acid [12] = assay: Binding affinity to weaker binding site of unlabeled stem loop 2 HIV1 RNA of packaging element psi by isothermal titration calorimetry; assay type: nucleic-acid assay, Human immunodeficiency virus 1
Nucleic Acid [13] = assay: Binding affinity to 2-aminopurine-labeled stem loop 4 HIV1 RNA of packaging element psi by titration method; assay type: nucleic-acid assay, Human immunodeficiency virus 1
Nucleic Acid [14] = assay: Selectivity ratio of Kd for fluorescein-labeled HIV1 duplex RNA of packaging element psi to Kd for fluorescein-labeled 14mer stem loop 3 HIV1 RNA of packaging element psi; assay type: nucleic-acid assay; conditions: Human immunodeficiency virus 1
Nucleic Acid [15] = assay: Selectivity ratio of Kd for fluorescein-labeled HIV1 single-stranded RNA of packaging element psi to Kd for fluorescein-labeled 14mer stem loop 3 HIV1 RNA of packaging element psi; assay type: nucleic-acid assay; conditions: Human immunodeficiency virus 1
Nucleic Acid [16] = assay: Stabilization of stem loop 3 HIV1 RNA of packaging element psi assessed as protection against RNase 1-mediated cleavage at 500 uM by footprinting method; assay type: nucleic-acid assay; conditions: Human immunodeficiency virus 1
Nucleic Acid [17] = assay: Stabilization of stem loop 3 HIV1 RNA of packaging element psi assessed as melting temperature by UV spectroscopy; assay type: nucleic-acid assay; conditions: Human immunodeficiency virus 1
Nucleic Acid [18] = assay: Binding affinity to fluorescein-labeled stem loop 3 HIV1 RNA of packaging element psi after 72 hrs by mass spectroscopy; assay type: nucleic-acid assay; conditions: Human immunodeficiency virus 1
Nucleic Acid [19] = assay: Binding affinity to fluorescein-labeled 14mer stem loop 3 HIV1 RNA of packaging element psi by titration method; assay type: nucleic-acid assay, Human immunodeficiency virus 1
Nucleic Acid [20] = assay: Binding affinity to fluorescein-labeled stem loop 3 HIV1 RNA of packaging element psi by titration method; assay type: nucleic-acid assay; conditions: Human immunodeficiency virus 1
Nucleic Acid [21] = assay: Binding affinity to fluorescein-labeled stem loop 4 HIV1 RNA of packaging element psi by titration method; assay type: nucleic-acid assay, Human immunodeficiency virus 1
Nucleic Acid [22] = assay: Selectivity ratio of Kd for fluorescein-labeled stem loop 4 HIV1 RNA of packaging element psi to Kd for fluorescein-labeled 14mer stem loop 3 HIV1 RNA of packaging element psi; assay type: nucleic-acid assay; conditions: Human immunodeficiency virus 1
Nucleic Acid [23] = assay: Selectivity ratio of Kd for fluorescein-labeled stem loop 2 HIV1 RNA of packaging element psi to Kd for fluorescein-labeled 14mer stem loop 3 HIV1 RNA of packaging element psi; assay type: nucleic-acid assay; conditions: Human immunodeficiency virus 1
Nucleic Acid [24] = assay: Binding affinity to stem loop 3 HIV1 RNA of packaging element psi assessed as RNA intercalation at 55 to 110 uM by CD spectroscopy; assay type: nucleic-acid assay; conditions: Human immunodeficiency virus 1
[25] = Solubility in water; assay type: physicochemical; conditions: buffer
[26] = Solubility in DMSO; assay type: physicochemical

Structure (SMILES): O=C1Oc2ccccc2C(=O)/C1=C/N1C(=O)N/C(=C\c2ccccc2O)C1=O
- Kd (Nucleic Acid [1]): 163 µM

Structure (SMILES): COc1ccc2nc3cc(Cl)ccc3c(Nc3ccc(O)c(CN4CCN(C)CC4)c3)c2c1
- Kd (Nucleic Acid [2]): 0.87 µM
- Kd (Nucleic Acid [3]): 3 µM
- Kd (Nucleic Acid [1]): 0.67 µM
- Selectivity ratio (Nucleic Acid [4]): 4.4

Structure (SMILES): CCOC(=O)c1c2c(n3ccccc13)C(=O)c1ccccc1C2=O
- Kd (Nucleic Acid [2]): 3 µM
- Selectivity ratio (Nucleic Acid [5]): 2
- Kd (Nucleic Acid [3]): 2.3 µM
- Kd (Nucleic Acid [6]): Not Active
- Selectivity ratio (Nucleic Acid [7]): 2
- Kd (Nucleic Acid [1]): 1.4 µM

Structure (SMILES): COC1=C(C)C(=O)c2c(c(COC(N)=O)c3n2CC2C3N2C)C1=O (stereo unspecified)
- Kd (Nucleic Acid [9]): 110 µM
- Activity (Nucleic Acid [10]): Active
- Kd (Nucleic Acid [2]): 345 µM
- Kd (Nucleic Acid [11]): Not Active
- Kd (Nucleic Acid [12]): 11000 µM
- Kd (Nucleic Acid [13]): 79 µM
- Kd (Nucleic Acid [3]): > 4900 µM
- Selectivity ratio (Nucleic Acid [14]): 3.5
- Selectivity ratio (Nucleic Acid [15]): 50
- Activity (Nucleic Acid [16]): Active
- Tm (Nucleic Acid [17]): 79.2 °C
- Activity (Nucleic Acid [18]): Active
- Kd (Nucleic Acid [19]): 98 µM

Structure (SMILES): Cc1cc(N2CCN(C)CC2)n2nc(-c3ccc(Cl)cc3)nc2n1
- Kd (Nucleic Acid [9]): 15 µM
- Kd (Nucleic Acid [2]): 69 µM
- Kd (Nucleic Acid [11]; read-out: Kd): 46 µM
- Kd (Nucleic Acid [12]): 2250 µM
- Kd (Nucleic Acid [3]): 276 µM
- Selectivity ratio (Nucleic Acid [14]): 5
- Selectivity ratio (Nucleic Acid [15]): 25
- Activity (Nucleic Acid [16]): Active
- Tm (Nucleic Acid [17]): 78.2 °C
- Kd (Nucleic Acid [21]): 70 µM
- Kd (Nucleic Acid [6]; read-out: Kd): 58 µM
- Selectivity ratio (Nucleic Acid [22]): 7
- Kd (Nucleic Acid [19]): 11 µM
- Selectivity ratio (Nucleic Acid [23]): 4
- Activity (Nucleic Acid [24]): inactive

Structure (SMILES): C[N+]1(C)C2CC(OC(=O)C(CO)c3ccccc3)CC1C1OC12 (stereo unspecified)
- Kd (Nucleic Acid [19]): 157 µM

Structure (SMILES): C[N+](C)(C)CCN[N+]1(C)CCCc2ccccc21 (stereo unspecified)
- Kd (Nucleic Acid [2]): 6.1 µM
- Selectivity ratio (Nucleic Acid [5]): 4
- Kd (Nucleic Acid [3]): 7.8 µM
- Kd (Nucleic Acid [6]; read-out: Kd): 14 µM
- Selectivity ratio (Nucleic Acid [7]): 4
- Kd (Nucleic Acid [1]): 1.5 µM

Structure (SMILES): C[N+]1(C)CCc2cc(O)c(O)cc2C1Cc1ccc(O)c(O)c1 (stereo unspecified)
- Kd (Nucleic Acid [1]): 135 µM

Continued, values first:

- Kd (Nucleic Acid [8]): 32 µM
Structure (SMILES): CN(C)c1ncnc2c1ncn2CCn1cnc2ncnc(N(C)C)c21

- Activity (Nucleic Acid [20]): inactive
Structure (SMILES): Cn1c(N)nc2c(nc(OCc3ccccc3)n2[C@@H]2O[C@H](CO)[C@@H](O)[C@@H]2O)c1=O

- solubility [25]: Insoluble
- solubility [26]: Insoluble
Structure (SMILES): Cc1ccn2c(CCc3nnc4cc(C)ccn34)nnc2c1
